# “And” between values parts separate entries of the source, which are not always exact repeats. Equal entries are not always repeated.
# System: DMS 114 tumor spheroids, viability % test/control
# Test: Anticancer human tumor DMS 114 cell line growth inhibition;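 further: spheroids exposed to compounds for 7 days before read-out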;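 on viability, T/C: luminescence used as a proxy for viable cells; 100% = DMSO vehicle control viability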
# Settings: spheroids with HUVEC and MSC; for viability, T/C: stronger effect = lower value
# How it was run: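 Complex tumor spheroids combined malignant cells with endothelial cells and mesenchymal stem cells. DNA-damaging drugs and DNA repair inhibitors were tested alone and in combination, at half-log dilutions down from clinical Cmax (top 10 microM if Cmax unknown), 0.25% DMSO final.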
# [1] = curve of first compound, second compound 30 pM
# [2] = curve of first compound, second compound 94.9 pM
# [3] = curve of first compound, second compound 0.0003 µM
# [4] = curve of first compound, second compound 0.000949 µM
# [5] = curve of first compound, second compound 0.003 µM
compound,measurement,setting,value
CC(C)n1c(=O)n(C)c2cnc3cc(F)c(-c4ccc(OCCCN5CCCCC5)nc4)cc3c21 + COc1cc2c(cc1O)CCNC21CSC2c3c(OC(C)=O)c(C)c4c(c3C(COC1=O)N1C(O)C3Cc5cc(C)c(OC)c(O)c5C(C21)N3C)OCO4,IC50,[1],4100 nM
same,IC50,[2],1600 nM
same,IC50,[3],< 31.6 nM
same,IC50,[4],< 31.6 nM
same,IC50,[5],< 31.6 nM
same,"viability, T/C","second compound 30 pM, first compound 0.0316 µM",75.2%
same,"viability, T/C","second compound 30 pM, first compound 0.1 µM",102%
same,"viability, T/C","second compound 30 pM, first compound 0.316 µM",91.9%
same,"viability, T/C","second compound 30 pM, first compound 1 µM",84.7%
same,"viability, T/C","second compound 30 pM, first compound 3.16 µM",59%
same,"viability, T/C","second compound 30 pM, first compound 10 µM",19.2%
same,"viability, T/C","second compound 94.9 pM, first compound 0.0316 µM",63%
same,"viability, T/C","second compound 94.9 pM, first compound 0.1 µM",52.2%
same,"viability, T/C","second compound 94.9 pM, first compound 0.316 µM",54.2%
same,"viability, T/C","second compound 94.9 pM, first compound 1 µM",58.5%
same,"viability, T/C","second compound 94.9 pM, first compound 3.16 µM",42.3%
same,"viability, T/C","second compound 94.9 pM, first compound 10 µM",16.5%
same,"viability, T/C","second compound 0.0003 µM, first compound 0.0316 µM",21.9%
same,"viability, T/C","second compound 0.0003 µM, first compound 0.1 µM",23.5%
same,"viability, T/C","second compound 0.0003 µM, first compound 0.316 µM",22.8%
same,"viability, T/C","second compound 0.0003 µM, first compound 1 µM",20.6%
same,"viability, T/C","second compound 0.0003 µM, first compound 3.16 µM",22.3%
same,"viability, T/C","second compound 0.0003 µM, first compound 10 µM",8.07%
same,"viability, T/C","second compound 0.000949 µM, first compound 0.0316 µM",2.63%
same,"viability, T/C","second compound 0.000949 µM, first compound 0.1 µM",2.62%
same,"viability, T/C","second compound 0.000949 µM, first compound 0.316 µM",2.73%
same,"viability, T/C","second compound 0.000949 µM, first compound 1 µM",5.38%
same,"viability, T/C","second compound 0.000949 µM, first compound 3.16 µM",2.74%
same,"viability, T/C","second compound 0.000949 µM, first compound 10 µM",1.03%
same,"viability, T/C","second compound 0.003 µM, first compound 0.0316 µM",0.2%
same,"viability, T/C","second compound 0.003 µM, first compound 0.1 µM",0.22%
same,"viability, T/C","second compound 0.003 µM, first compound 0.316 µM",0.17%
same,"viability, T/C","second compound 0.003 µM, first compound 1 µM",0.14%
same,"viability, T/C","second compound 0.003 µM, first compound 3.16 µM",0.12%
same,"viability, T/C","second compound 0.003 µM, first compound 10 µM",0.23%
O=C(c1cc(Cc2n[nH]c(=O)c3ccccc23)ccc1F)N1CCN(C(=O)C2CC2)CC1,"viability, T/C",compound 0.0949 µM,105% and 104% and 97.3%
same,"viability, T/C",compound 0.3 µM,104% (2×) and 102%
same,"viability, T/C",compound 0.949 µM,107% and 98.7% and 106%
same,"viability, T/C",compound 3 µM,109% and 107% and 102%
same,"viability, T/C",compound 9.49 µM,70.7% and 53.2% and 55.8%
same,"viability, T/C",compound 30 µM,48.5% and 29.6% and 26.8%
same,IC50,curve of compound,27700 nM and 11100 nM and 12000 nM
Cc1sc2c(c1C)C(c1ccc(Cl)cc1)=NC(CC(=O)Nc1ccc(O)cc1)c1nnc(C)n1-2 (configuration not stated) + COc1cc2c(cc1O)CCNC21CSC2c3c(OC(C)=O)c(C)c4c(c3C(COC1=O)N1C(O)C3Cc5cc(C)c(OC)c(O)c5C(C21)N3C)OCO4,IC50,[1],165 nM
same,IC50,[2],97.3 nM
same,IC50,[3],< 9.49 nM
same,IC50,[4],< 9.49 nM
same,IC50,[5],< 9.49 nM
same,"viability, T/C","second compound 30 pM, first compound 0.00949 µM",107%
same,"viability, T/C","second compound 30 pM, first compound 0.03 µM",102%
same,"viability, T/C","second compound 30 pM, first compound 0.0949 µM",65.1%
same,"viability, T/C","second compound 30 pM, first compound 0.3 µM",33.3%
same,"viability, T/C","second compound 30 pM, first compound 0.949 µM",5.12%
same,"viability, T/C","second compound 30 pM, first compound 3 µM",3.29%
same,"viability, T/C","second compound 94.9 pM, first compound 0.00949 µM",101%
same,"viability, T/C","second compound 94.9 pM, first compound 0.03 µM",80.1%
same,"viability, T/C","second compound 94.9 pM, first compound 0.0949 µM",55.4%
same,"viability, T/C","second compound 94.9 pM, first compound 0.3 µM",12.1%
same,"viability, T/C","second compound 94.9 pM, first compound 0.949 µM",5.83%
same,"viability, T/C","second compound 94.9 pM, first compound 3 µM",1.91%
same,"viability, T/C","second compound 0.0003 µM, first compound 0.00949 µM",41.7%
same,"viability, T/C","second compound 0.0003 µM, first compound 0.03 µM",27.1%
same,"viability, T/C","second compound 0.0003 µM, first compound 0.0949 µM",13.1%
same,"viability, T/C","second compound 0.0003 µM, first compound 0.3 µM",5.79%
same,"viability, T/C","second compound 0.0003 µM, first compound 0.949 µM",1.67%
same,"viability, T/C","second compound 0.0003 µM, first compound 3 µM",0.76%
same,"viability, T/C","second compound 0.000949 µM, first compound 0.00949 µM",3.12%
same,"viability, T/C","second compound 0.000949 µM, first compound 0.03 µM",1.58%
same,"viability, T/C","second compound 0.000949 µM, first compound 0.0949 µM",1.35%
same,"viability, T/C","second compound 0.000949 µM, first compound 0.3 µM",0.73%
same,"viability, T/C","second compound 0.000949 µM, first compound 0.949 µM",0.39%
same,"viability, T/C","second compound 0.000949 µM, first compound 3 µM",0.19%
same,"viability, T/C","second compound 0.003 µM, first compound 0.00949 µM",0.2%
same,"viability, T/C","second compound 0.003 µM, first compound 0.03 µM",0.19%
same,"viability, T/C","second compound 0.003 µM, first compound 0.0949 µM",0.17%
same,"viability, T/C","second compound 0.003 µM, first compound 0.3 µM",0.13%
same,"viability, T/C","second compound 0.003 µM, first compound 0.949 µM",0.16%
same,"viability, T/C","second compound 0.003 µM, first compound 3 µM",0.3%

# Source: PubChem BioAssay AID1845202 (Molecular Pharmacology Branch, DTP, NCI, 2023)
